# Data published in patent US20050288373A1, “Methods of treating various conditions by administration of sustained release L-arginine” (priority 2002, published 2005).
# Tests used:
# [1] = system: total cholesterol; experiment: Change in total cholesterol levels; assay type: in vivo, human; conditions: resulting from treatment, 3 weeks
# Experimental: (§1) Endothelium-dependent vasodilation was assessed by brachial artery ultrasound using computer-assisted image analysis; ADMA and L-arginine plasma concentrations were determined by a validated HPLC method.
# (§2) In the study described in Example 15, the change in total cholesterol (TC), LDL cholesterol, HDL cholesterol, and triglycerides was analyzed pre- and post-treatment.
# [2] = system: triglycerides; experiment: Triglyceride levels pre- and post-treatment; assay type: in vivo, human; conditions: for No. of subjects outside normal range, triglycerides: 15 subjects
# [3] = system: LDL cholesterol; conditions: resulting from treatment, 3 weeks
# Experimental: as §1, §2
# [4] = system: HDL cholesterol; conditions: resulting from treatment, 3 weeks
# Experimental: as §1, §2
# [5] = resulting from treatment, 3 weeks
smiles,measurement,setting,value
"CCC(C)(C)C(=O)O[C@H]1C[C@@H](C)C=C2C=C[C@H](C)[C@H](CC[C@@H]3C[C@@H](O)CC(=O)O3)[C@H]21 [Simvastatin, simvastatin]","Change in Total Cholesterol Levels, Mean",[1],-76.3 mg/dL
same,"Change in Total Cholesterol Levels, Median",[1],-78.0 mg/dL
same,"Change in Total Cholesterol Levels, Min-Max",[1],-134 to -14 mg/dL
same,"Triglyceride Levels, Mean","[2]; after treatment, 3 weeks",140.2 mg/dL
same,"Triglyceride Levels, Median","[2]; after treatment, 3 weeks",134.0 mg/dL
same,"Triglyceride Levels, Min-Max","[2]; after treatment, 3 weeks",58 to 440 mg/dL
same,"No. of subjects outside normal range, triglycerides","[2]; after treatment, 3 weeks",1
same,"Triglyceride Levels, Mean",[2]; before treatment,165.1 mg/dL
same,"Triglyceride Levels, Median",[2]; before treatment,155.0 mg/dL
same,"Triglyceride Levels, Min-Max",[2]; before treatment,51 to 337 mg/dL
same,"No. of subjects outside normal range, triglycerides",[2]; before treatment,5
same,"Change in Triglyceride Levels, Mean",[2]; [5],-24.9 mg/dL
same,"Change in Triglyceride Levels, Median",[2]; [5],-38.0 mg/dL
same,"Change in Triglyceride Levels, Min-Max",[2]; [5],-143 to 205 mg/dL
same,"Change in Low Density Lipoprotein Cholesterol Levels, Mean",[3],-70.7 mg/dL
same,"Change in Low Density Lipoprotein Cholesterol Levels, Median",[3],-78.0 mg/dL
same,"Change in Low Density Lipoprotein Cholesterol Levels, Min-Max",[3],-121 to -20 mg/dL
same,"Change in High Density Lipoprotein Cholesterol Levels, Mean",[4],1.2 mg/dL
same,"Change in High Density Lipoprotein Cholesterol Levels, Median",[4],0.0 mg/dL
same,"Change in High Density Lipoprotein Cholesterol Levels, Min-Max",[4],-7 to 20 mg/dL
